{"source": "patent US12617757B2", "about": "“Compounds and modules for inhibition of pre-miR-21 and their use in treatment of certain cancers” (University of Florida Research Foundation, Incorporated, priority 2019, dated 2026)", "key": {"[1]": {"assay": "DMPK: plasma levels in C57BL/6 mice", "format": "in vivo, mouse", "conditions": "i.p., 10 mg/kg", "method": "DMPK Measurements: Male C57BL/6 mice (n=3, 5-7 weeks) were used for pharmacokinetics (PK) assessment. Mice were dosed i.p. (10 mg/kg) with 5 in a formulation of DMSO/Tween-80/H2O (10/10/80) and blood (25 μL) was drawn at 0.25, 0.5, 1, 2, 4, 6, 8, and 24 h time points. Detection of compound levels in blood plasma was determined using LC/MS-MS on a QTRAP 5500 LC-MS/MS System (AB Sciex)."}, "[2]": {"system": "MDA-MB-231-Luc cells", "assay": "In vivo MDA-MB-231 lung metastasis model in NOD/SCID mice", "design": "species or system mouse", "conditions": "10 mg/kg; for lung nodules / metastasis to lung: 6 weeks", "method": "FIGS. 46A-46C. In vivo mouse weights and Scrambled FISH staining of lung nodules with 5 treatment. […] Treatment of mice with 10 mg/kg of 5 started after 6 days of tumor cell injection. […] Dashed line indicates normalized signal intensity in vehicle samples.\nIntravenous delivery of MDA-MB-231 cells to mice is a model of breast cancer metastasis and metastatic behavior can be affected by inhibition of miR-21, S. Yang, J. J. Zhang, X.-Y. Huang, Mouse models for tumor metastasis. Methods Mol. Biol. 928, 221-228 (2012)."}, "[3]": {"system": "proteome of MDA-MB-231 cells", "assay": "Global proteomics profiling (LC-MS/MS) of MDA-MB-231 cells", "format": "cell-based, human", "conditions": "50 nM, versus all proteins", "method": "Global proteomics profiling using LC-MS/MS. The MDA-MB-231 cells treated with vehicle (DMSO) or 5 (50 nM) were washed with PBS, harvested by scraping, centrifuged at 1500×g for five minutes at 4° C. and then resuspended in PBS. Cells were lysed by sonication and lysate protein concentrations were determined using a Bradford assay (Bio-Rad). Protein samples (40 μg) were denatured with 6 M urea in 50 mM NH4HCO3, reduced with 10 mM tris(2-carboxyethyl)phosphine hydrochloride (TCEP) for 30 minutes, and then alkylated with 25 mM iodoacetamide for 30 minutes in the dark. Samples were diluted to 2 M urea with 50 mM NH4HCO3, and digested with trypsin (2 μL of 0.5 μg/μL) in the presence of 1 mM CaCl2) for 12 hours at 37° C. […] Samples were analyzed by LC-MS/MS (see below) and the MS data was processed with MaxQuant and Proteome Discoverer (see below).\nLC-MS/MS analysis: Peptides were resuspended in water with 0.1% formic acid (FA) and analyzed using an EASY-nLC 1200 nano-UHPLC coupled to Q Exactive HF-X Quadrupole-Orbitrap mass spectrometer (Thermo Scientific). […]\nMaxQuant analysis: The MS data was analyzed with MaxQuant (V1.6.1.0)^27 and searched against the human proteome (Uniprot) and a common list of contaminants (included in MaxQuant). […] The minimum peptide length was set to 6 amino acids and peptide re-quantification and label-free quantification (MaxLFQ) were enabled. […]"}}}
{"smiles": "CCCN(CC(=O)N(CCC)CC(=O)N(CCC)CC(=O)N(CC(=O)NCCOCCOCCOCCOc1ccc(C=C2SC(Nc3ccccc3)=C(C(=O)OCC)C2=O)cc1O)Cc1cn(CCCNC(=O)CCCOc2ccc(-c3nc4cc(-c5ccc(N6CCN(C)CC6)cc5)ccc4[nH]3)cc2)nn1)C(=O)CN(Cc1cn(CCCNC(=O)CCCOc2ccc(-c3nc4cc(-c5ccc(N6CCN(C)CC6)cc5)ccc4[nH]3)cc2)nn1)C(C)=O", "note": "[Compound 5]", "values": [{"measurement": "concentrations maintained in mice (plasma)", "setting": "[1]", "value": "low nanomolar concentrations"}, {"measurement": "weight changes compared to vehicle-treated mice", "setting": "[2]; over 42 days, NOD/SCID mice", "value": "did not cause significant weight changes"}, {"measurement": "PDCD4 in lung nodule tissue sections", "setting": "[2]; q.o.d.", "value": "increased PDCD4 levels"}, {"measurement": "hematoxylin and eosin (HE) staining of lung tissue", "setting": "[2]; q.o.d.", "value": "decreased hematoxylin and eosin (HE) staining"}, {"measurement": "mature miR-21 in lung nodule tissue (FISH)", "setting": "[2]; q.o.d.", "value": "decreased mature miR-21"}, {"measurement": "pre-miR-21 in lung nodule tissue (FISH)", "setting": "[2]; q.o.d.", "value": "decreased"}, {"measurement": "lung nodules / metastasis to lung", "setting": "[2]; q.o.d.", "value": "decreased lung nodules"}, {"measurement": "lung nodules / metastasis to lung", "setting": "[2]; q.o.d., listed as Formula 5", "value": "inhibited breast cancer metastasis to lung"}, {"measurement": "PDCD4 in lung nodule tissue sections", "setting": "[2]; q.o.d., listed as Formula 5", "value": "increase in PDCD4 protein expression"}, {"measurement": "mature miR-21 in lung nodule tissue (FISH)", "setting": "[2]; q.o.d., listed as Formula 5", "value": "diminished"}, {"measurement": "pre-miR-21 in lung nodule tissue (FISH)", "setting": "[2]; q.o.d., listed as Formula 5", "value": "diminished"}, {"measurement": "tolerability", "setting": "[2]; intraperitoneal injection, q.o.d.", "value": "well tolerated"}, {"measurement": "median log fold-change of predicted downstream protein targets of miR-21", "setting": "[3]", "value": "significantly upregulated relative to all proteins"}]}
